Measurements from patent publication US10376481B2, “Compounds and methods for inhibiting NHE-mediated antiport in the treatment of disorders associated with fluid retention or salt overload and gastrointestinal tract disorders” (ARDELYX, INC, priority 2012, dated 2019).

Assays:
[1] = human absorption data, from Ertl et al.; cited from earlier work
human NHE3 [2] = molecular target: T1, human NHE3 (Homo sapiens, UniProt P48764); assay: Cell-based assay of NHE-3 activity (human NHE3 inhibition assay); design: expressed in transfected cells; host or cells: Opossum kidney (OK) cells (ATCC), electroporated; settings: OK cells with human NHE-3 gene, BCECF pH recovery, 0-30 μM test compound; read-out: Human NHE3 pIC50 (converted)
T1 sequence (P48764 26-834): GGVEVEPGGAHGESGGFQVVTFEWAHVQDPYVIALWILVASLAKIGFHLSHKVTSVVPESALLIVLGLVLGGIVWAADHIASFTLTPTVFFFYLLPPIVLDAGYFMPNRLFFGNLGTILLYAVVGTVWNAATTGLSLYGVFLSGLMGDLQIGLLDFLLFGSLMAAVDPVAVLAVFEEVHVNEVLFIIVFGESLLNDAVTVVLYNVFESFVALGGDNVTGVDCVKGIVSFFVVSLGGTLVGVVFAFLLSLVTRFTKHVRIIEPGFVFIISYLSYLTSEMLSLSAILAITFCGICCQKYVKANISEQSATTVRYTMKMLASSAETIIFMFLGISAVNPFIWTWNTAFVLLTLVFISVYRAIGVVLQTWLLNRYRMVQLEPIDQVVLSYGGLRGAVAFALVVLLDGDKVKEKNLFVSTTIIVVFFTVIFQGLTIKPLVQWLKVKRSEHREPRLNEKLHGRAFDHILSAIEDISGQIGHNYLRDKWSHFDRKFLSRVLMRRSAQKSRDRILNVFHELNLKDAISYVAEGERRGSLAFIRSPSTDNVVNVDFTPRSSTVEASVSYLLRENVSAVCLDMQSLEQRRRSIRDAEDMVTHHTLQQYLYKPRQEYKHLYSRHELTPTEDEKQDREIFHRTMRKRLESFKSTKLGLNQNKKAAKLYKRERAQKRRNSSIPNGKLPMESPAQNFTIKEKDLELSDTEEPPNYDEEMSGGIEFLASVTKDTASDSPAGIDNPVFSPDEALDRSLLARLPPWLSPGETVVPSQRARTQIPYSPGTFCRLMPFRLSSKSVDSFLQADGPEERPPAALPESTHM
Procedure: Rat or human NHE-3-mediated Na^+-dependent H^+ antiport was measured using a modification of the pH sensitive dye method originally reported by Paradiso (Proc. Natl. Acad. Sci. USA. (1984) 81(23): 7436-7440). Opossum kidney (OK) cells were obtained from the ATCC and propagated per their instructions. The rat NHE-3 gene (GenBank M85300) or the human NHE-3 gene (GenBank NM_004174.1) was introduced into OK cells via electroporation, and cells were seeded into 96 well plates and grown overnight. Medium was aspirated from the wells, cells were washed twice with NaCl-HEPES buffer (100 mM NaCl, 50 mM HEPES, 10 mM glucose, 5 mM KCl, 2 mM CaCl2, 1 mM MgCl2, pH 7.4), then incubated for 30 min at room temperature with NH4Cl-HEPES buffer (20 mM NH4Cl, 80 mM NaCl, 50 mM HEPES, 5 mM KCl, 2 mM CaCl2, 1 mM MgCl2, pH 7.4) containing 5 μM bis(acetoxymethyl) 3,3′-(3′,6′-bis(acetoxymethoxy)-5-((acetoxymethoxy)carbonyl)-3-oxo-3H-spiro[isobenzofuran-1,9′-xanthene]-2′,7′-diyl)dipropanoate (BCECF-AM). Cells were washed twice with Ammonium free, Na^+-free HEPES (100 mM choline, 50 mM HEPES, 10 mM glucose, 5 mM KCl, 2 mM CaCl2, 1 mM MgCl2, pH 7.4) and incubated in the same buffer for 10 minutes at room temperature to lower intracellular pH. […] Initial rates were plotted as the average 2 or more replicates, and pIC50 values were estimated using GraphPad Prism.

human NHE3 [3] = molecular target: T1, human NHE3; assay: Cell-based assay of NHE-3 activity (pre-incubation inhibition), human; settings: for IC50: PS120 fibroblasts stably expressing human NHE3, 10 min pre-incubation with 0-30 μM test compound, read-out: pIC50 (human Preincubation assay) (converted); for % inhibition (human Preincubation assay): PS120 fibroblasts stably expressing human NHE3, pre-incubation with test compound
Procedure: Rat and human NHE-3-mediated Na^+-dependent H^+ antiport was measured using a modification of the pH sensitive dye method originally reported by Paradiso (Proc. Natl. Acad. Sci. USA. (1984) 81(23): 7436-7440, which is hereby incorporated by reference in its entirety). PS120 fibroblasts stably expressing human NHE3 were obtained from Mark Donowitz (Baltimore, Md.). Opossum kidney (OK) cells were obtained from the ATCC and propagated per their instructions. The rat NHE-3 gene (GenBank M85300) was introduced into OK cells via electroporation, and cells were seeded into 96 well plates and grown overnight. Medium was aspirated from the wells then incubated for 30 min at 37° C. with NH4Cl-HEPES buffer (20 mM NH4Cl, 80 mM NaCl, 50 mM HEPES, 5 mM KCl, 2 mM CaCl2, 1 mM MgCl2, pH 7.4) containing 5 μM BCECF-AM. Cells were washed once with Ammonium free, Nat-free HEPES (100 mM choline, 50 mM HEPES, 10 mM glucose, 5 mM KCl, 2 mM CaCl2, 1 mM MgCl2, pH 7.4) and incubated in the same buffer for 10 minutes at room temperature to lower intracellular pH with 0-30 μM test compound. […] Changes in intracellular pH were monitored using a FLIPR Tetra® (Molecular Devices, Sunnyvale, Calif.) by excitation at λex 439 to 505 nm, and measuring BCECF fluorescence at λem 538 nm. The initial rate of the fluorescence ratio change was used as a measure of NHE-mediated Na^+/H^+ activity, and reported as the change in fluorescence ratio per minute. Initial rates were plotted as the average 2 or more replicates, and pIC50 values were estimated using GraphPad Prism.

human NHE3 [4] = molecular target: T1, human NHE3; assay: Cell-based assay of NHE-3 activity (persistent inhibition), human; settings: PS120 fibroblasts stably expressing human NHE3, 60 min incubation then washout; for IC50: read-out: pIC50 (human Persistence assay) (converted)
Procedure: The ability of compounds to inhibit human and rat NHE-3-mediated Na^+-dependent H^+ antiport after application and washout was measured using a modification of the pH sensitive dye method described above. PS120 fibroblasts stably expressing human NHE3 were obtained from Mark Donowitz (Baltimore, Md.). Opossum kidney (OK) cells were obtained from the ATCC and propagated per their instructions. The rat NHE-3 gene was introduced into OK cells via electroporation, and cells were seeded into 96 well plates and grown overnight. Medium was aspirated from the wells, cells were washed once with NaCl-HEPES buffer (100 mM NaCl, 50 mM HEPES, 10 mM glucose, 5 mM KCl, 2 mM CaCl2, 1 mM MgCl2, pH 7.4), then overlayed with NaCl-HEPES buffer containing 0-30 μM test compound. After a 60 min incubation at room temperature, the test drug containing buffer was aspirated from the cells. Following aspiration, cells were washed once with NaCl-HEPES buffer without drug, then incubated for 30 min at 37° C. with NH4Cl-HEPES buffer (20 mM NH4Cl, 80 mM NaCl, 50 mM HEPES, 5 mM KCl, 2 mM CaCl2, 1 mM MgCl2, pH 7.4) containing 5 μM BCECF-AM. Cells were washed once with Ammonium free, Na^+-free HEPES (100 mM choline, 50 mM HEPES, 10 mM glucose, 5 mM KCl, 2 mM CaCl2, 1 mM MgCl2, pH 7.4) and incubated in the same buffer for 10 minutes at room temperature to lower intracellular pH. NHE-3-mediated recovery of neutral intracellular pH was initiated (10 min after compound washout) by addition of Na-HEPES buffer. […] Changes in intracellular pH were monitored using a FLIPR Tetra® (Molecular Devices, Sunnyvale, Calif.) by excitation at λex 439 to 505 nm, and measuring BCECF fluorescence at λem 538 nm. The initial rate of the fluorescence ratio change was used as a measure of NHE-mediated Na^+/H^+ activity, and reported as the change in fluorescence ratio per minute. Initial rates were plotted as the average 2 or more replicates, and pIC50 values were estimated using GraphPad Prism.

[5] = test system: gastrointestinal motility; assay: Gastrointestinal transit (Evans Blue dye) in opioid induced constipation model; type: in vivo, mice; settings: oral vehicle, loperamide 3 mg/kg subcutaneous, 30-minute period; vehicle/vehicle approximately 70%
Procedure: Gastrointestinal transit is measured in mice treated with the peripherally acting μ-opioid agonist loperamide to assess the ability of selected example compounds to restore gastrointestinal motility in a model of opioid induced constipation. Approximately eight-week old, female, CD1 […] are purchased from Envigo (Livermore, Calif.), are housed 4 per cage and acclimated for at least 48 hours before study initiation. Animals are fed standard laboratory rodent chow Harlan Teklad Global 2018 (Maddison, Wis.). […] 30 minutes later, animals are euthanized by carbon dioxide inhalation, and the length from the pylorus to cecum (whole length of the small intestine) and the length from the pylorus to the Evans Blue dye front are measured and recorded. For an individual animal, the length travelled by the Evans Blue dye front is divided by the length of the whole small intestine, measured from the pylorus to the cecum, and multiplied by 100, to provide the distance of the small intestine travelled by the dye as a percentage. […] The effect of example compounds on GIT motility in the presence of loperamide is calculated as the ability to restore vehicle/vehicle transit distance from the vehicle/loperamide transit, expressed as a percentage.

Row | SMILES | % FA [1] [%] | other results
1 | OC[C@@H](O)[C@@H](O)[C@H](O)[C@H](O)CO [mannitol] | 26 | –
2 | C=CCc1ccccc1OCC(O)CNC(C)C (stereo not drawn) [alprenolol] | 96 | –
3 | O=C(O)c1cc(/N=N/c2ccc(O)c(C(=O)O)c2)ccc1O [olsalazine] | 2.3 | –
4 | O=C(O)c1cc(/N=N/c2ccc(S(=O)(=O)Nc3ccccn3)cc2)ccc1O [sulfasalazine] | 12 | –
5 | Cc1ccccc1N1C(=O)c2cc(S(N)(=O)=O)c(Cl)cc2NC1C (stereo not drawn) [metolazone] | 64 | –
6 | CC(C)NCC(O)COc1cccc2[nH]ccc12 (stereo not drawn) [pindolol] | 92 | –
7 | CCN1CCCC1CNC(=O)c1cc(S(N)(=O)=O)ccc1OC (stereo not drawn) [sulpiride] | 36 | –
8 | N[C@@H]1CCCN([C@H]2Cc3c(F)cc(Cl)cc3[C@@H]2Oc2ccc(S(=O)(=O)NCCOCCOCCNC(=O)NCCCCNC(=O)NCCOCCOCCNS(=O)(=O)c3ccc(O[C@H]4c5cc(Cl)cc(F)c5C[C@@H]4N4CCC[C@@H](N)C4)cc3)cc2)C1 [Example 29] | – | IC50 (human NHE3 [2]): < 100 nM; IC50 (human NHE3 [3]): < 100 nM; % inhibition (human Preincubation assay) (human NHE3 [3]): C (>70%); % inhibition (human Persistence assay) (human NHE3 [4]): B (40-70%); IC50 (human NHE3 [4]): > 1000 nM
9 | O=C(O)P(=O)(O)O [foscarnet] | 17 | –
10 | CN(C)C(=O)C(CCN1CCC(O)(c2ccc(Cl)cc2)CC1)(c1ccccc1)c1ccccc1 [loperamide] | – | distance of the small intestine travelled by the Evans Blue dye front [5]: ~25%
11 | OC[C@H]1O[C@@H](O[C@@H]2[C@@H](CO)OC(O)(CO)[C@H]2O)[C@H](O)[C@@H](O)[C@H]1O (mixture of isomers) [lactulose] | 0.6 | –
12 | NC[C@H]1CC[C@H](C(=O)O)CC1 [tranexamic acid] | 55 | –
13 | C=CCOc1ccccc1OCC(O)CNC(C)C (stereo not drawn) [oxprenolol] | 97 | –
14 | OC[C@H]1O[C@H](OC[C@H]2O[C@H](O[C@]3(CO)O[C@H](CO)[C@@H](O)[C@@H]3O)[C@H](O)[C@@H](O)[C@@H]2O)[C@H](O)[C@@H](O)[C@H]1O [raffinose] | 0.3 | –
15 | CC(=O)Nc1ccc(OCC(O)CNC(C)C)cc1 (stereo not drawn) [practolol] | 95 | –
16 | O=C(NCCCCNC(=O)NCCOCCOCCNS(=O)(=O)c1ccc(O[C@H]2c3cc(Cl)cc(Cl)c3C[C@@H]2N2CCCC2)cc1)NCCOCCOCCNS(=O)(=O)c1ccc(O[C@H]2c3cc(Cl)cc(Cl)c3C[C@@H]2N2CCCC2)cc1 [Example 17] | – | IC50 (human NHE3 [2]): < 100 nM; IC50 (human NHE3 [3]): < 100 nM; % inhibition (human Preincubation assay) (human NHE3 [3]): C (>70%); % inhibition (human Persistence assay) (human NHE3 [4]): C (>70%); IC50 (human NHE3 [4]): < 100 nM
